Results taken from paper PMC3750255, “Inhibition of Mycoplasma pneumoniae growth by FDA-approved anticancer and antiviral nucleoside and nucleobase analogs” (BMC Microbiology, 2013).

Assays:
Mpn TK = experiment: TK activity in total protein extracts of Mpn cultured with TFT; assay type: cell-based, Mycoplasma pneumoniae; conditions: 10 μM TFT, 70 hours culture
Protocol: (§1) Total proteins were extracted from these cultures and used to determine the TK and TS activity.
(§2) Mpn wild type cells were cultured in the presence of [^3H]-dT and different concentrations of TFT. The cells were incubated at 37°C for 70 hours and harvested. The total uptake and incorporation of [^3H]-dT were analysed, and TK and TS activity were determined in total protein extracts.
(§3) To determine the effect of TFT on TK and TS activity, Mpn wild type cells were cultured in 75 cm^2 tissue culture flasks containing 50 ml medium, inoculated with 3 ml of stock culture (1 × 10^9 cfu/ml), in the presence of [^3H]-dT (1 μCi ml^-1) and different concentrations of TFT. After 70 hours at 37°C the cultures were harvested and divided to two aliquots, one was used to determine total uptake/metabolism of radiolabeled dT and total proteins were extracted from the other aliquot and used to measure TK and TS activity using [^3H]-dT and [5-^3H]-dUMP as substrates.

Mpn TS = experiment: TS activity in total protein extracts of Mpn cultured with TFT; assay type: cell-based; conditions: various concentrations of TFT, 70 hours culture
Protocol: as §1, §2, §3

Ureaplasma TK [1] = target: T1, Ureaplasma TK (Ureaplasma parvum serovar 3, UniProt Q9PPP5); experiment: TFT phosphorylation kinetics, phosphoryl transfer assay; assay type: biochemical; conditions: 100 μM [γ-32P]-ATP
T1 construct: made in house
T1 sequence (Q9PPP5 1-223): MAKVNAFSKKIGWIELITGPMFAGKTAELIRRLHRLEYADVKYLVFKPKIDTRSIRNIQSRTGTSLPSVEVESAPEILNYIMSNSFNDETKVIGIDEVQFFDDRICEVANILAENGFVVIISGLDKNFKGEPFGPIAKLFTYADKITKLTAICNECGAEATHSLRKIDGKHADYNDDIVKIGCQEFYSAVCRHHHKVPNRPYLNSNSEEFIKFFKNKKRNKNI
Protocol: (§4) Figure 3 Substrate saturation curves of TFT with human TK2 (A), human TK1 (B), and Ureaplasma TK (C). Kinetic assays with TFT were performed by using [γ-^32P]-ATP as the labelled substrate at fixed concentration and variable concentrations of TFT. The reaction products were separated by thin layer chromatography, and quantified as described in the experimental procedures.
(§5) Kinetic parameters for TFT were determined by using the phosphoryl transfer assays as previously described. Briefly, each reaction was performed in a total volume of 20 μl containing 50 mM Tris/HCl, pH 7.5, 0.5 mg/ml BSA, 5 mM DTT, 2 mM MgCl2, 15 mM NaF, variable concentrations of TFT, 0.1 mM [γ-^32P]-ATP, and 50 ng purified enzyme at 37°C for 20 min, and stopped by heating at 70°C for 2 min. After brief centrifugation, 1 μl supernatant was spotted onto a TLC plate (PEI-cellulose, Merck) and dried. The TLC plates were developed in isobutyric acid/ammonia/H2O (66:1:33). The reaction products were visualized and quantified by phosphoimaging analysis (Quantity One, Bio-Rad).

human TK1 [2] = target: T2, human TK1 (Homo sapiens, UniProt P04183); experiment: as above; assay type: biochemical; conditions: 100 μM [γ-32P]-ATP
T2 construct: made in house
T2 sequence (P04183 1-234): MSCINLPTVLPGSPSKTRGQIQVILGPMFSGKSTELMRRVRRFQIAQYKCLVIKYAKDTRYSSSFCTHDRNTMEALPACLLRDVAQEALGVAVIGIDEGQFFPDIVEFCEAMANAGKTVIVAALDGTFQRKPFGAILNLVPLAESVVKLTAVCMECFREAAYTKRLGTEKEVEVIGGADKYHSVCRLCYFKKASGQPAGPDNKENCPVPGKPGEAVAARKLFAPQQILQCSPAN
Protocol: as §4, §5

human TK2 [3] = target: T3, human TK2 (Homo sapiens, UniProt O00142); experiment: as above; assay type: biochemical; conditions: 100 μM [γ-32P]-ATP
T3 construct: made in house
T3 sequence (O00142 34-265): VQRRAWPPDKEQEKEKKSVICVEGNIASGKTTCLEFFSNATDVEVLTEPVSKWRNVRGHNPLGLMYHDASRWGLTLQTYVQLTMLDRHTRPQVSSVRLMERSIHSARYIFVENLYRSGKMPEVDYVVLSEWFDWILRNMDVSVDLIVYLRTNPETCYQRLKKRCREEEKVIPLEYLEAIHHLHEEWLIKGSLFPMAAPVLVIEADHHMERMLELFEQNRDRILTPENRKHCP
Protocol: as §4, §5

Ureaplasma TK [4] = target: T1, Ureaplasma TK; experiment: Thymidine kinase inhibition with [3H]-dT as substrate; assay type: biochemical; conditions: 10 μM tritium labelled thymidine
Protocol: (§6) Thymidine kinase assay was performed using tritium labelled thymidine ([^3H]-dT) as substrate and various concentrations of the inhibitors essentially as previously described to determine the IC50 values of TFT and 5FdU.

human TK1 [5] = target: T2, human TK1; experiment: as above; assay type: biochemical; conditions: 10 μM tritium labelled thymidine
Protocol: as §6

human TK2 [6] = target: T3, human TK2; experiment: as above; assay type: biochemical; conditions: 10 μM tritium labelled thymidine
Protocol: as §6

TK in Mpn extracts = target: T4, TK in Mpn extracts (Mycoplasmoides pneumoniae, UniProt P75070); experiment: Inhibition of dT phosphorylation in Mpn protein extracts; assay type: biochemical; conditions: 10 μM tritium labelled thymidine; read-out: IC50 Mpn extracts
T4 construct: endogenous in cells; host or cells: Mycoplasma pneumoniae M129 total protein extract
T4 sequence (P75070 1-191): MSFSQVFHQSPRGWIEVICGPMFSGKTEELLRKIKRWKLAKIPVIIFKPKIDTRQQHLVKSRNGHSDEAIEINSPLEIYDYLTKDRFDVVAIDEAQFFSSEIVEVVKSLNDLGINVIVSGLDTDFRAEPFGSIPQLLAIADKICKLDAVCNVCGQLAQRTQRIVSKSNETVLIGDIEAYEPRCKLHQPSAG
Protocol: Both TFT and 5FdU are substrates of Mycoplasma and human TKs, as described above and earlier studies.
as §6

Q: Which “TK activity relative to controls” value (Mpn TK) does the source give for `O=c1[nH]c(=O)n([C@H]2C[C@H](O)[C@@H](CO)O2)cc1C(F)(F)F` [Trifluorothymidine (TFT), Trifluorothymidine] here?
A: The value was ~ 3 times.

Q: What about the “TS activity (in words)” value (Mpn TS) of the same compound?
A: The value was “unchanged”.

Q: And the kcat (Ureaplasma TK [1])?
A: Its kcat is 0.055 ± 0.008 s⁻¹.

Q: What about the Km (Ureaplasma TK [1]; TFT 1 – 100 μM) of the same compound?
A: Its Km is 9.9 ± 5.2 µM.

Q: What about the kcat (human TK1 [2]) of the same compound?
A: The kcat was 0.043 ± 0.003 s⁻¹.

Q: What about the Km (human TK1 [2]; TFT 1 – 100 μM) of the same compound?
A: The Km was 5.9 ± 1.7 µM.

Q: And the kcat (human TK2 [3])?
A: Its kcat is 0.026 ± 0.003 s⁻¹.

Q: And the Km (human TK2 [3]; TFT 1 – 100 μM)?
A: The Km was 8.8 ± 3.8 µM.

Q: And the IC50 (Ureaplasma TK [4])?
A: The IC50 was 12 ± 4.2 µM.

Q: What about the IC50 (human TK1 [5]) of the same compound?
A: Its IC50 is 9.7 ± 3.2 µM.

Q: And the IC50 (human TK2 [6])?
A: Its IC50 is 80 ± 5.6 µM.

Q: What about the IC50 (TK in Mpn extracts) of the same compound?
A: Its IC50 is 9.1 ± 2.9 µM.
